In PMC3265250 (Chemotherapy Research and Practice, 2011):
≈ marks a conversion by molar mass, not a printed value. Where two headings read alike, the source gives them in different places. No end group written: not given here.

Tests used:
[1] = test system: Superantigen negative S. aureus (10); conditions: for MIC 50% / MIC 90% / MIC Range: microbroth dilution, MHB II, 5 × 10^5 CFU/mL, 18 h at 37°C
[2] = test system: S. aureus ATCC 6538P; experiment: MIC, microbroth dilution, referential strain ATCC 6538P; assay type: cell-based, Staphylococcus aureus
Procedure: (§1) A total number of 24 SA strains were obtained from patients with erythrodermia and 3 reference SA ones from the American Type Culture Collection: 6538P ATCC, 9144 ATCC, and 25923 ATCC (Institute of Experimental Therapy, Wroclaw, Poland). […] Polypropylene 96-well plates (Sigma-Aldrich) were incubated for 18 h at 37°C. MIC was taken as the lowest drug concentration at which a noticeable growth was inhibited. […] The experiments were performed in triplicate.

[3] = test system: Superantigen positive S. aureus (14); experiment: microbe, parasite or virus in culture; conditions: Staphylococcus aureus; for MIC50 / MIC90 / MIC: 18 h; for MIC: read-out: MIC Range
[4] = test system: Superantigen negative S. aureus (10); experiment: microbe, parasite or virus in culture; conditions: Staphylococcus aureus; for MIC50 / MIC90 / MIC: 18 h; for MIC: read-out: MIC Range
[5] = test system: S. aureus ATCC 9144; experiment: MIC, microbroth dilution, referential strain ATCC 9144; assay type: cell-based, Staphylococcus aureus
[6] = test system: Superantigen positive S. aureus (14); conditions: for MIC 50% / MIC 90% / MIC Range: microbroth dilution, MHB II, 5 × 10^5 CFU/mL, 18 h at 37°C
[7] = test system: S. aureus ATCC 25923; experiment: MIC, microbroth dilution, referential strain ATCC 25923; assay type: cell-based, Staphylococcus aureus
Procedure: as §1

[8] = superantigen negative clinical isolates (10), more than 99.9% reduction of the initial inoculums, triplicate
[9] = Staphylococcus aureus, ATCC6538P, ATCC 6538P, microbroth dilution, MHB II, 5 × 10^5 CFU/mL, 18 h at 37°C, triplicate, read-out: MIC
[10] = Staphylococcus aureus, ATCC9144, ATCC 9144, microbroth dilution, MHB II, 5 × 10^5 CFU/mL, 18 h at 37°C, triplicate, read-out: MIC
[11] = superantigen positive clinical isolates (14), more than 99.9% reduction of the initial inoculums, triplicate
[12] = Staphylococcus aureus, ATCC25923, ATCC 25923, microbroth dilution, MHB II, 5 × 10^5 CFU/mL, 18 h at 37°C, triplicate, read-out: MIC
[13] = superantigen negative clinical isolates (10), triplicate
[14] = ATCC 6538P, microbroth dilution, MHB II, 5 × 10^5 CFU/mL, 18 h at 37°C, triplicate
[15] = ATCC 9144, microbroth dilution, MHB II, 5 × 10^5 CFU/mL, 18 h at 37°C, triplicate
[16] = superantigen positive clinical isolates (14), triplicate
[17] = ATCC 25923, microbroth dilution, MHB II, 5 × 10^5 CFU/mL, 18 h at 37°C, triplicate

Compound	MBC Range [1, 8] [µg/mL]	MIC [2, 9] [µg/mL]	MIC50 [3] [µg/mL]	MIC90 [3] [µg/mL]	MIC [3] [µg/mL]	MIC90 ([3]; read-out: MICs 90%) [µg/mL]	MBC ([3]; read-out: MBC 50%) [µg/mL]	MBC ([3]; read-out: MBC 90%) [µg/mL]	MIC50 [4] [µg/mL]	MIC90 [4] [µg/mL]	MIC [4] [µg/mL]	MIC90 ([4]; read-out: MICs 90%) [µg/mL]	MBC ([4]; read-out: MBC 50%) [µg/mL]	MBC ([4]; read-out: MBC 90%) [µg/mL]	MIC [5, 10] [µg/mL]	MBC Range [6, 11] [µg/mL]	MIC [7, 12] [µg/mL]	MBC 50% [1] [µg/mL]	MBC 90% [1] [µg/mL]	MBC 50% [6] [µg/mL]	further results
CO[C@H]1/C=C/O[C@@]2(C)Oc3c(C)c(O)c4c(O)c(c(/C=N/N5CCN(C)CC5)c(O)c4c3C2=O)NC(=O)/C(C)=C\C=C\[C@H](C)[C@H](O)[C@@H](C)[C@@H](O)[C@@H](C)[C@H](OC(C)=O)[C@@H]1C [Rifampicin, rifampicin]	1 to 2	0.25 (≈ 0.304 µM)	0.25 (≈ 0.304 µM)	1 (≈ 1.22 µM)	0.25 to 1 (≈ 0.304 to 1.22 µM)	1 (≈ 1.22 µM)	1 (≈ 1.22 µM)	2 (≈ 2.43 µM)	0.25 (≈ 0.304 µM)	1 (≈ 1.22 µM)	0.25 to 1 (≈ 0.304 to 1.22 µM)	1 (≈ 1.22 µM)	0.25 (≈ 0.304 µM)	1 (≈ 1.22 µM)	0.25 (≈ 0.304 µM)	0.5 to 2	0.25 (≈ 0.304 µM)				
CC(=O)NC[C@H]1CN(c2ccc(N3CCOCC3)c(F)c2)C(=O)O1 [Linezolid, linezolid]		0.5 (≈ 1.48 µM)	1 (≈ 2.96 µM)	2 (≈ 5.93 µM)	0.5 to 2 (≈ 1.48 to 5.93 µM)	2 (≈ 5.93 µM)			1 (≈ 2.96 µM)	1 (≈ 2.96 µM)	0.5 to 2 (≈ 1.48 to 5.93 µM)	1 (≈ 2.96 µM)			1 (≈ 2.96 µM)		0.5 (≈ 1.48 µM)				
GLFDIIKKIAESF-NH2 (C-terminus assumed) [Aurein 1.2, aurein 1.2]	64 to 128															64 to 128		64	128	64	MIC 50% [1, 13]: 64 µg/mL; MIC 90% [1, 13]: 128 µg/mL; MIC Range [1, 13]: 32 to 128 µg/mL; MIC [2, 14]: 64 µg/mL; MIC [5, 15]: 64 µg/mL; MBC 90% [6]: 128 µg/mL; MIC 50% [6, 16]: 64 µg/mL; MIC 90% [6, 16]: 128 µg/mL; MIC Range [6, 16]: 32 to 128 µg/mL; MIC [7, 17]: 64 µg/mL
CCC[C@@H]1C[C@@H](C(=O)N[C@@H]([C@H]2O[C@H](SC)[C@H](O)[C@@H](O)[C@H]2O)[C@H](C)Cl)N(C)C1 [Clindamycin, clindamycin]	64 to 128	4 (≈ 9.41 µM)	64 (≈ 151 µM)	512 (≈ 1200 µM)	8 to 512 (≈ 18.8 to 1200 µM)	512 (≈ 1200 µM)	64 (≈ 151 µM)	128 (≈ 301 µM)	32 (≈ 75.3 µM)	32 (≈ 75.3 µM)	16 to 64 (≈ 37.6 to 151 µM)	32 (≈ 75.3 µM)	32 (≈ 75.3 µM)	64 (≈ 151 µM)	2 (≈ 4.71 µM)	16 to 512	2 (≈ 4.71 µM)				
O=C(N[C@H](CO)[C@H](O)c1ccc([N+](=O)[O-])cc1)C(Cl)Cl [Chloramphenicol, chloramphenicol]	8 to 32	4 (≈ 12.4 µM)	8 (≈ 24.8 µM)	64 (≈ 198 µM)	4 to 128 (≈ 12.4 to 396 µM)	64 (≈ 198 µM)	16 (≈ 49.5 µM)	128 (≈ 396 µM)	4 (≈ 12.4 µM)	32 (≈ 99 µM)	2 to 32 (≈ 6.19 to 99 µM)	32 (≈ 99 µM)	8 (≈ 24.8 µM)	32 (≈ 99 µM)	4 (≈ 12.4 µM)	8 to 128	4 (≈ 12.4 µM)				
CN[C@H](CC(C)C)C(=O)N[C@H]1C(=O)N[C@@H](CC(N)=O)C(=O)N[C@H]2C(=O)N[C@H]3C(=O)N[C@H](C(=O)N[C@H](C(=O)O)c4cc(O)cc(O)c4-c4cc3ccc4O)[C@H](O)c3ccc(c(Cl)c3)Oc3cc2cc(c3O[C@@H]2O[C@H](CO)[C@@H](O)[C@H](O)[C@H]2O[C@H]2C[C@](C)(N)[C@H](O)[C@H](C)O2)Oc2ccc(cc2Cl)[C@H]1O [Vancomycin, vancomycin]			1 (≈ 0.69 µM)	2 (≈ 1.38 µM)	0.5 to 2 (≈ 0.345 to 1.38 µM)	2 (≈ 1.38 µM)	2 (≈ 1.38 µM)	4 (≈ 2.76 µM)	1 (≈ 0.69 µM)	1 (≈ 0.69 µM)	0.5 to 1 (≈ 0.345 to 0.69 µM)	1 (≈ 0.69 µM)	1 (≈ 0.69 µM)	2 (≈ 1.38 µM)							MBC Range [1]: 1 to 4 µg/mL; MIC ([2]; Staphylococcus aureus, ATCC6538P, 18 h): 1 µg/mL (≈ 0.69 µM); MIC ([5]; Staphylococcus aureus, ATCC9144, 18 h): 2 µg/mL (≈ 1.38 µM); MBC Range [6]: 1 to 4 µg/mL; MIC ([7]; Staphylococcus aureus, ATCC25923, 18 h): 1 µg/mL (≈ 0.69 µM)
GVIDAAKKVVNVLKNLF-NH2 (C-terminus assumed) [Uperin 3.6, uperin 3.6]																		128	128	128	MBC 90% [6]: 128 µg/mL
GLFDVIKKVASVIGGL-NH2 (C-terminus assumed) [Citropin 1.1, citropin 1.1]	16 to 64															16 to 64		16	64	16	MIC 50% [1, 13]: 16 µg/mL; MIC 90% [1, 13]: 32 µg/mL; MIC Range [1, 13]: 8 to 32 µg/mL; MIC [2, 14]: 8 µg/mL; MIC [5, 15]: 32 µg/mL; MBC 90% [6]: 64 µg/mL; MIC 50% [6, 16]: 16 µg/mL; MIC 90% [6, 16]: 32 µg/mL; MIC Range [6, 16]: 8 to 32 µg/mL; MIC [7, 17]: 32 µg/mL
CN(C)c1cc(NC(=O)CNC(C)(C)C)c(O)c2c1C[C@H]1C[C@H]3[C@H](N(C)C)C(O)=C(C(N)=O)C(=O)[C@@]3(O)C(O)=C1C2=O [Tigecycline, tigecycline]	1 to 2	0.25 (≈ 0.427 µM)	0.5 (≈ 0.854 µM)	0.5 (≈ 0.854 µM)	0.5 to 1 (≈ 0.854 to 1.71 µM)	0.5 (≈ 0.854 µM)	1 (≈ 1.71 µM)	1 (≈ 1.71 µM)	0.5 (≈ 0.854 µM)	0.5 (≈ 0.854 µM)	0.5 to 1 (≈ 0.854 to 1.71 µM)	0.5 (≈ 0.854 µM)	1 (≈ 1.71 µM)	1 (≈ 1.71 µM)	0.25 (≈ 0.427 µM)	1 to 2	0.25 (≈ 0.427 µM)				
CC[C@H]1OC(=O)[C@H](C)[C@@H](O[C@H]2C[C@@](C)(OC)[C@@H](O)[C@H](C)O2)[C@H](C)[C@@H](O[C@@H]2O[C@H](C)C[C@H](N(C)C)[C@H]2O)[C@](C)(O)C[C@@H](C)C(=O)[C@H](C)[C@@H](O)[C@]1(C)O [Erythromycin, erythromycin]		1 (≈ 1.36 µM)	1 (≈ 1.36 µM)	256 (≈ 349 µM)		256 (≈ 349 µM)	8 (≈ 10.9 µM)	128 (≈ 174 µM)	0.5 (≈ 0.681 µM)	0.5 (≈ 0.681 µM)	0.25 to 64 (≈ 0.341 to 87.2 µM)	0.5 (≈ 0.681 µM)	1 (≈ 1.36 µM)	2 (≈ 2.73 µM)	1 (≈ 1.36 µM)	4 to 512	1 (≈ 1.36 µM)				MIC Range [6, 16]: 0.25 to 512 µg/mL
FLPLIGRVLSGIL-NH2 (C-terminus assumed) [Temporin A, temporin A]	16 to 64															16 to 64		16	32	32	MIC 50% [1, 13]: 8 µg/mL; MIC 90% [1, 13]: 16 µg/mL; MIC Range [1, 13]: 8 to 32 µg/mL; MIC [2, 14]: 8 µg/mL; MIC [5, 15]: 16 µg/mL; MBC 90% [6]: 64 µg/mL; MIC 50% [6, 16]: 8 µg/mL; MIC 90% [6, 16]: 16 µg/mL; MIC Range [6, 16]: 8 to 32 µg/mL; MIC [7, 17]: 16 µg/mL
O=C(O)c1cn(C2CC2)c2cc(N3CCNCC3)c(F)cc2c1=O [Ciprofloxacin, ciprofloxacin]		1 (≈ 3.02 µM)															1 (≈ 3.02 µM)				
